Test results reported in ChEMBL document CHEMBL1201862, “PubChem BioAssay data set” (2004).
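Each compound was tested at five concentrations against cells in 96-well plates for 48 hours. The concentration for 50% growth inhibition is given as GI50.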 The source made the active and inactive calls. Rule as the data show it: active = GI50 up to about 1.1 µM and inactive = higher.

Columns and labels:
Test in all cases: NCI-60 cell line screen, 48 h
[1] = system: 786-0
[2] = system: A498
[3] = system: A549
[4] = system: ACHN
[5] = system: BT-549
[6] = system: CAKI-1
[7] = system: CCRF-CEM
[8] = system: COLO 205
[9] = system: DU-145
[10] = system: EKVX
[11] = system: HCC 2998
[12] = system: HCT-116
[13] = system: HCT-15
[14] = system: HL-60
[15] = system: HOP-62
[16] = system: HOP-92
[17] = system: HT-29
[18] = system: Hs-578T
[19] = system: IGROV-1
[20] = system: K562
[21] = system: KM12
[22] = system: LOX IMVI
[23] = system: M14
[24] = system: MCF7
[25] = system: MDA-MB-231
[26] = system: MDA-MB-435
[27] = system: MDA-N
[28] = system: MOLT-4
[29] = system: Malme-3M
[30] = system: NCI-H226
[31] = system: NCI-H23
[32] = system: NCI-H460
[33] = system: NCI-H522
[34] = system: NCI/ADR-RES
[35] = system: OVCAR-3
[36] = system: OVCAR-4
[37] = system: OVCAR-5
[38] = system: OVCAR-8
[39] = system: PC-3
[40] = system: RPMI-8226
[41] = system: RXF 393
[42] = system: SF-268
[43] = system: SF-295
[44] = system: SF-539
[45] = system: SK-MEL-28
[46] = system: SK-MEL-2
[47] = system: SK-MEL-5
[48] = system: SK-OV-3
[49] = system: SN12C
[50] = system: SNB-19
[51] = system: SNB-75
[52] = system: SR
[53] = system: SW-620
[54] = system: T47D
[55] = system: TK-10
[56] = system: U-251
[57] = system: UACC-257
[58] = system: UACC-62
[59] = system: UO-31

## O=[N+]([O-])C(=C(\Cl)NCCO)/C(Cl)=C(/Cl)Br
[1]
  GI50: 1.19 µM (inactive)
[2]
  GI50: 4.66 µM (inactive)
[3]
  GI50: 7.91 µM (inactive)
[4]
  GI50: 2.75 µM (inactive)
[5]
  GI50: 1.77 µM (inactive)
[6]
  GI50: 0.558 µM (active)
[7]
  GI50: 0.323 µM (active)
[8]
  GI50: 1.38 µM (inactive)
[9]
  GI50: 7.74 µM (inactive)
[10]
  GI50: 4.85 µM (inactive)
[11]
  GI50: 3.33 µM (inactive)
[12]
  GI50: 1.61 µM (inactive)
[13]
  GI50: 1.32 µM
[14]
  GI50: 0.791 µM (active)
[15]
  GI50: 10.8 µM (inactive)
[16]
  GI50: 1.56 µM (inactive)
[17]
  GI50: 1.83 µM (inactive)
[18]
  GI50: 6 µM (inactive)
[19]
  GI50: 2.77 µM (inactive)
[20]
  GI50: 0.665 µM (active)
[21]
  GI50: 5.57 µM (inactive)
[22]
  GI50: 0.885 µM (active)
[23]
  GI50: 1.57 µM (inactive)
[24]
  GI50: 0.716 µM (active)
[25]
  GI50: 1.74 µM (inactive)
[26]
  GI50: 1.3 µM (inactive)
[27]
  GI50: 1.83 µM (inactive)
[28]
  GI50: 0.481 µM (active)
[29]
  GI50: 1.62 µM (inactive)
[30]
  GI50: 6.73 µM (inactive)
[31]
  GI50: 2.9 µM (inactive)
[32]
  GI50: 2.7 µM (inactive)
[33]
  GI50: 1.1 µM (active)
[34]
  GI50: 2.34 µM (inactive)
[35]
  GI50: 1.32 µM (inactive)
[36]
  GI50: 0.716 µM (active)
[37]
  GI50: 4 µM (inactive)
[38]
  GI50: 1.87 µM (inactive)
[39]
  GI50: 2.62 µM (inactive)
[40]
  GI50: 1.48 µM (inactive)
[41]
  GI50: 2.6 µM (inactive)
[42]
  GI50: 1.62 µM (inactive)
[43]
  GI50: 12.1 µM (inactive)
[44]
  GI50: 2.34 µM (inactive)
[45]
  GI50: 2.1 µM (inactive)
[46]
  GI50: 1.03 µM (active)
[47]
  GI50: 2.44 µM (inactive)
[48]
  GI50: 15 µM (inactive)
[49]
  GI50: 1.98 µM (inactive)
[50]
  GI50: 6.7 µM (inactive)
[51]
  GI50: 3.37 µM (inactive)
[52]
  GI50: 1.11 µM (active)
[53]
  GI50: 1.17 µM (inactive)
[54]
  GI50: 1.74 µM (inactive)
[55]
  GI50: 2.16 µM (inactive)
[56]
  GI50: 2.04 µM (inactive)
[57]
  GI50: 1.87 µM (inactive)
[58]
  GI50: 1.75 µM (inactive)
[59]
  GI50: 2.79 µM (inactive)

## Cn1nnc2c(C(N)=S)ncn2c1=O
[1]
  GI50: > 100 µM (inactive)
[2]
  GI50: > 100 µM (inactive)
[3]
  GI50: > 100 µM (inactive)
[4]
  GI50: > 100 µM (inactive)
[5]
  GI50: > 100 µM (inactive)
[6]
  GI50: > 100 µM (inactive)
[7]
  GI50: > 100 µM (inactive)
[8]
  GI50: > 100 µM (inactive)
[9]
  GI50: > 100 µM (inactive)
[10]
  GI50: > 100 µM (inactive)
[11]
  GI50: > 100 µM (inactive)
[12]
  GI50: > 100 µM (inactive)
[13]
  GI50: > 100 µM
[14]
  GI50: > 100 µM (inactive)
[15]
  GI50: > 100 µM (inactive)
[16]
  GI50: > 100 µM (inactive)
[17]
  GI50: > 100 µM (inactive)
[18]
  GI50: > 100 µM (inactive)
[19]
  GI50: > 100 µM (inactive)
[20]
  GI50: > 100 µM (inactive)
[21]
  GI50: > 100 µM (inactive)
[22]
  GI50: > 100 µM (inactive)
[23]
  GI50: > 100 µM (inactive)
[24]
  GI50: > 100 µM (inactive)
[25]
  GI50: > 100 µM (inactive)
[26]
  GI50: > 100 µM (inactive)
[27]
  GI50: > 100 µM (inactive)
[28]
  GI50: > 100 µM (inactive)
[29]
  GI50: > 100 µM (inactive)
[30]
  GI50: > 100 µM (inactive)
[31]
  GI50: > 100 µM (inactive)
[32]
  GI50: > 100 µM (inactive)
[33]
  GI50: > 100 µM (inactive)
[34]
  GI50: > 100 µM (inactive)
[35]
  GI50: > 100 µM (inactive)
[36]
  GI50: > 100 µM (inactive)
[37]
  GI50: > 100 µM (inactive)
[38]
  GI50: > 100 µM (inactive)
[39]
  GI50: > 100 µM (inactive)
[40]
  GI50: > 100 µM (inactive)
[41]
  GI50: > 100 µM (inactive)
[42]
  GI50: > 100 µM (inactive)
[43]
  GI50: 74.1 µM (inactive)
[44]
  GI50: > 100 µM (inactive)
[45]
  GI50: > 100 µM (inactive)
[46]
  GI50: > 100 µM (inactive)
[47]
  GI50: > 100 µM (inactive)
[48]
  GI50: > 100 µM (inactive)
[49]
  GI50: > 100 µM (inactive)
[50]
  GI50: > 100 µM (inactive)
[51]
  GI50: > 100 µM (inactive)
[52]
  GI50: > 100 µM (inactive)
[53]
  GI50: > 100 µM (inactive)
[54]
  GI50: > 100 µM (inactive)
[55]
  GI50: > 100 µM (inactive)
[56]
  GI50: > 100 µM (inactive)
[57]
  GI50: > 100 µM (inactive)
[58]
  GI50: > 100 µM (inactive)
[59]
  GI50: > 100 µM (inactive)
